Reference: patent US8178658B2 (Dow AgroSciences, LLC, priority 2008, dated 2012)

Tests used:
[1] = system: beet armyworm (BAW; Spodoptera exigua: Lepidoptera); test: 96-well microtiter plate-based high throughput (HTS) diet bioassay on beet armyworm (BAW HTS); format: in vivo; settings: BAW eggs, 12 μg test compound per well, mortality at 6 d post-treatment, mortality class
In short: (§1)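 Percent larval mortality after six days was the endpoint. Higher-throughput plates used eggs, 12 μg compound per well and 29° C darkness; trays used second instar larvae, a 50 μg/cm^2 dose and 25° C with 14:10 light cycle.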

[2] = system: beet armyworm (BAW; Spodoptera exigua: Lepidoptera); test: 128-well diet tray assay on beet armyworm (BAW 50); format: in vivo; settings: 128-well diet tray assay; 50 μg/cm^2 of test compound on diet; second instar BAW larvae; mortality class
In short: as §1

[3] = 96-well microtiter plate HTS diet assay

| SMILES | BAW HTS ([1]; 96-well HTS diet assay) | BAW HTS [1, 3] | BAW 50 ug/cm2 [2] |
| --- | --- | --- | --- |
| CCOC1C(OC)C(C)OC(ON=Cc2cccc(-c3ncc(-c4cccc(OC(F)(F)F)c4)cn3)c2)C1OC (stereo not drawn) [Compound 149] | B (either (1) the compound was tested and less than 50 percent mortality was observed or (2) the compound was not tested) | B (either (1) the compound was tested and less than 50 percent mortality was observed or (2) the compound was not tested) | A (the compound was tested and at least 50 percent mortality was observed) |
| CCOC1C(OC)C(C)OC(ON=Cc2ccc(-c3ncc(-c4ccc(C)cc4)cn3)cc2)C1OC (stereo not drawn) [Compound 150] | B (either (1) the compound was tested and less than 50 percent mortality was observed or (2) the compound was not tested) | B (either (1) the compound was tested and less than 50 percent mortality was observed or (2) the compound was not tested) | B (either (1) the compound was tested and less than 50 percent mortality was observed or (2) the compound was not tested) |
| CCOC1C(OC)C(C)OC(ON=Cc2ccc(-c3ncc(-c4ccc(C(F)(F)F)cc4)cn3)cc2)C1OC (stereo not drawn) [Compound 151] | B (either (1) the compound was tested and less than 50 percent mortality was observed or (2) the compound was not tested) | B (either (1) the compound was tested and less than 50 percent mortality was observed or (2) the compound was not tested) | A (the compound was tested and at least 50 percent mortality was observed) |
| CCOC1C(OC)C(C)OC(ON=Cc2ccc(-c3ncc(-c4ccccc4C)cn3)cc2)C1OC (stereo not drawn) [Compound 152] | B (either (1) the compound was tested and less than 50 percent mortality was observed or (2) the compound was not tested) | B (either (1) the compound was tested and less than 50 percent mortality was observed or (2) the compound was not tested) | A (the compound was tested and at least 50 percent mortality was observed) |
| CCOC1C(OC)C(C)OC(ON=Cc2ccc(-c3ncc(-c4ccc(F)cc4)cn3)cc2)C1OC (stereo not drawn) [Compound 153] | B (either (1) the compound was tested and less than 50 percent mortality was observed or (2) the compound was not tested) | B (either (1) the compound was tested and less than 50 percent mortality was observed or (2) the compound was not tested) | A (the compound was tested and at least 50 percent mortality was observed) |
| CCOC1C(OC)C(C)OC(ON=Cc2ccc(-c3ncc(-c4ccc(C#N)cc4)cn3)cc2)C1OC (stereo not drawn) [Compound 154] | B (either (1) the compound was tested and less than 50 percent mortality was observed or (2) the compound was not tested) | B (either (1) the compound was tested and less than 50 percent mortality was observed or (2) the compound was not tested) | A (the compound was tested and at least 50 percent mortality was observed) |
| CCOC1C(OC)C(C)OC(ON=Cc2ccc(-c3ncc(-c4ccccc4OC(F)(F)F)cn3)cc2)C1OC (stereo not drawn) [Compound 156] | B (either (1) the compound was tested and less than 50 percent mortality was observed or (2) the compound was not tested) | B (either (1) the compound was tested and less than 50 percent mortality was observed or (2) the compound was not tested) | A (the compound was tested and at least 50 percent mortality was observed) |
| COC1C(C)OC(ON=Cc2ccc(-c3ncnc(-c4ccc(C(F)(F)F)cc4)n3)cc2)C(OC)C1OC (stereo not drawn) [Compound 157] | A (the compound was tested and at least 50 percent mortality was observed) | A (the compound was tested and at least 50 percent mortality was observed) | B (either (1) the compound was tested and less than 50 percent mortality was observed or (2) the compound was not tested) |
| COC1C(C)OC(ON=Cc2ccc(-c3ncnc(-c4ccc(OC(F)(F)F)cc4)n3)cc2)C(OC)C1OC (stereo not drawn) [Compound 158] | A (the compound was tested and at least 50 percent mortality was observed) | A (the compound was tested and at least 50 percent mortality was observed) | A (the compound was tested and at least 50 percent mortality was observed) |
| COC1C(C)OC(ON=Cc2ccc(-c3cncc(-c4ccc(OC(F)(F)F)cc4)n3)cc2)C(OC)C1OC (stereo not drawn) [Compound 159] | A (the compound was tested and at least 50 percent mortality was observed) | A (the compound was tested and at least 50 percent mortality was observed) | A (the compound was tested and at least 50 percent mortality was observed) |
| CCOC1C(OC)C(C)OC(ON=Cc2ccc(N3CCN(c4ccc(OC(F)(F)F)cc4)CC3)nc2)C1OC (stereo not drawn) [Compound 160] | A (the compound was tested and at least 50 percent mortality was observed) | A (the compound was tested and at least 50 percent mortality was observed) | A (the compound was tested and at least 50 percent mortality was observed) |
| CCOC1C(OC)C(C)OC(ON=Cc2ccc(N3CCN(c4ccc(C(F)(F)F)cn4)CC3)cc2)C1OC (stereo not drawn) [Compound 161] | A (the compound was tested and at least 50 percent mortality was observed) | A (the compound was tested and at least 50 percent mortality was observed) | A (the compound was tested and at least 50 percent mortality was observed) |
| CCCOC1C(OC)C(C)OC(ON=Cc2ccc(N3CCN(c4ccc(OC(F)(F)F)cc4)CC3)cc2)C1OC (stereo not drawn) [Compound 162] | B (either (1) the compound was tested and less than 50 percent mortality was observed or (2) the compound was not tested) | B (either (1) the compound was tested and less than 50 percent mortality was observed or (2) the compound was not tested) | A (the compound was tested and at least 50 percent mortality was observed) |
| CCOC1C(OC)C(C)OC(ON=Cc2ccc(-c3ncc(-c4ccc(SC)cc4)cn3)cc2)C1OC (stereo not drawn) [Compound 163] | B (either (1) the compound was tested and less than 50 percent mortality was observed or (2) the compound was not tested) | B (either (1) the compound was tested and less than 50 percent mortality was observed or (2) the compound was not tested) | B (either (1) the compound was tested and less than 50 percent mortality was observed or (2) the compound was not tested) |
| COC1C(C)OC(ON=C(C)c2ccc(-c3cn(-c4ccc(OC(F)(F)F)cc4)cn3)s2)C(OC)C1OC (stereo not drawn) [Compound 164] | B (either (1) the compound was tested and less than 50 percent mortality was observed or (2) the compound was not tested) | B (either (1) the compound was tested and less than 50 percent mortality was observed or (2) the compound was not tested) | B (either (1) the compound was tested and less than 50 percent mortality was observed or (2) the compound was not tested) |
| COC1C(C)OC(ON=C(C)c2ccc(-c3cn(-c4ccc(OC(F)(F)F)cc4)cn3)cc2)C(OC)C1OC (stereo not drawn) [Compound 165] | B (either (1) the compound was tested and less than 50 percent mortality was observed or (2) the compound was not tested) | B (either (1) the compound was tested and less than 50 percent mortality was observed or (2) the compound was not tested) | A (the compound was tested and at least 50 percent mortality was observed) |
| COC1C(C)OC(ON=C(C)c2cccc(-c3cn(-c4ccc(OC(F)(F)F)cc4)cn3)c2)C(OC)C1OC (stereo not drawn) [Compound 166] | B (either (1) the compound was tested and less than 50 percent mortality was observed or (2) the compound was not tested) | B (either (1) the compound was tested and less than 50 percent mortality was observed or (2) the compound was not tested) | A (the compound was tested and at least 50 percent mortality was observed) |
| COC1C(C)OC(ON=C(C)c2ccc(Cl)c(-c3cn(-c4ccc(OC(F)(F)F)cc4)cn3)c2)C(OC)C1OC (stereo not drawn) [Compound 167] | B (either (1) the compound was tested and less than 50 percent mortality was observed or (2) the compound was not tested) | B (either (1) the compound was tested and less than 50 percent mortality was observed or (2) the compound was not tested) | A (the compound was tested and at least 50 percent mortality was observed) |
| COC1C(C)OC(ON=C(C)c2ccc(F)c(-c3cn(-c4ccc(OC(F)(F)F)cc4)cn3)c2)C(OC)C1OC (stereo not drawn) [Compound 168] | A (the compound was tested and at least 50 percent mortality was observed) | A (the compound was tested and at least 50 percent mortality was observed) | A (the compound was tested and at least 50 percent mortality was observed) |
